The structures appear in SMILES notation.

In the assay the test system is M. tuberculosis NTB1. In kind it is cell-based.
For `O=c1nc(N2CCN(CC3CCCCC3)CC2)sc2c([N+](=O)[O-])cc(C(F)(F)F)cc12` [PBTZ169, 2-[4-(cyclohexylmethyl)piperazin-1-yl]-8-nitro-6-(trifluoromethyl)-4H-1,3-benzothiazin-4-one, reference compound], the “NTB1 MIC99” value was above 100 µg/mL.

On to `CCCCCCCN1CCCN(c2nc(=O)c3cc(C(F)(F)F)cc([N+](=O)[O-])c3s2)CC1.Cl` [Compound 5, 2-(4-Heptyl-1,4-diazepan-1-yl)-8-nitro-6-(trifluoromethyl)-4H-1,3-benzothiazin-4-one Hydrochloride], for which the “NTB1 MIC99” value is 13.8 µg/mL.

As for `CCCCCN1CCCN(c2nc(=O)c3cc(C(F)(F)F)cc([N+](=O)[O-])c3s2)CC1.Cl` [Compound 2, 8-Nitro-2-(4-pentyl-1,4-diazepan-1-yl)-6-(trifluoromethyl)-4H-1,3-benzothiazin-4-one Hydrochloride], the “NTB1 MIC99” value is above 10 µg/mL.

`Cl.O=c1nc(N2CCCN(C3CCCCC3)CC2)sc2c([N+](=O)[O-])cc(C(F)(F)F)cc12` [Compound 6, 2-(4-Cyclohexyl-1,4-diazepan-1-yl)-8-nitro-6-(trifluoromethyl)-4H-1,3-benzothiazin-4-one Hydrochloride]: the “NTB1 MIC99” value came out at 50.5 µg/mL.

For the molecule `Cl.O=c1nc(N2CCCN(CCC3CCCCC3)CC2)sc2c([N+](=O)[O-])cc(C(F)(F)F)cc12` [Compound 4, 2-[4-(2-Cyclohexylethyl)-1,4-diazepan-1-yl]-8-nitro-6-(trifluoromethyl)-4H-1,3-benzothiazin-4-one Hydrochloride], the “NTB1 MIC99” value is above 10 µg/mL.

`CCCCCCN1CCCN(c2nc(=O)c3cc(C(F)(F)F)cc([N+](=O)[O-])c3s2)CC1.Cl` [Compound 3, 2-(4-Hexyl-1,4-diazepan-1-yl)-8-nitro-6-(trifluoromethyl)-4H-1,3-benzothiazin-4-one Hydrochloride]: the “NTB1 MIC99” value is above 10 µg/mL.

As for `Cl.O=c1nc(N2CCCN(CCc3ccccc3)CC2)sc2c([N+](=O)[O-])cc(C(F)(F)F)cc12` [Compound 7, 8-Nitro-2-[4-(2-phenylethyl)-1,4-diazepan-1-yl]-6-(trifluoromethyl)-4H-1,3-benzothiazin-4-one Hydrochloride], the “NTB1 MIC99” value worked out at 27.1 µg/mL.

The values above are taken from patent US10358442B2, “2-homopiperazine-1-yl-4H-1,3-benzothiazine-4-one derivatives and process for the preparation of 2-(homo)piperazine 1,3-benzothiazine-4-one hydrochlorides” (Ecole Polytechnique Federale De Lausanne (EPFL), priority 2015, dated 2019).
